Test results reported in publication PMC2685978, “Evaluation of Wuchereria bancrofti GST as a Vaccine Candidate for Lymphatic Filariasis” (PLoS Neglected Tropical Diseases, 2009).

Target: T1, rWbGST (Wuchereria bancrofti, UniProt Q86LL8)
T1 construct: about 28 kDa with tag
T1 sequence (Q86LL8 1-208): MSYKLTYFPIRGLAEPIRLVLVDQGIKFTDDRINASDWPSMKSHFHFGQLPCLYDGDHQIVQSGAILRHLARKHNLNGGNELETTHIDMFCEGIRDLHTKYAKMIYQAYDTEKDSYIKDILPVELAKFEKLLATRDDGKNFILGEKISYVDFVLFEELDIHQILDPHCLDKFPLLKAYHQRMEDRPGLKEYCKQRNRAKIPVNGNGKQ
Assay: spectrophotometric conjugation assay at […] nm
Assay type: biochemical
Conditions: 1.0 mM CDNB, 1.0 mM GSH, 100 mM phosphate, pH 6.5; only specific activity printed

## O=[N+]([O-])c1ccc(Cl)c([N+](=O)[O-])c1 [CDNB, 1-chloro-2,4-dinitrobenzene]
  spectrophotometric conjugation assay at 340 nm: GST enzyme activity was determined using CDNB and GSH substrates
